US7635592B2, “Tissue engineering scaffolds promoting matrix protein production” (Rice University, priority 2000, dated 2009)

Legend:
[1] = tested on: Aortic smooth muscle cells; assay: Matrix production in the presence of ascorbic acid, aortic smooth muscle cells; assay type: cell-based; conditions: SMCs
Description: (§1) Aortic smooth muscle cells and auricular chondrocytes were grown on tissue culture polystyrene with and without 50 μg/ml ascorbic acid added to the media. ECM protein production by the cells over a 2-day time period was determined by examining the amount of ^3H-glycine incorporated into the ECM elaborated by the cells.

Auricular chondrocytes [2] = assay: Matrix production in the presence of ascorbic acid, auricular chondrocytes; assay type: cell-based
Description: as §1

SMCs [3] = assay: Matrix protein production on peptide-modified glass surfaces (3H-glycine incorporation into ECM); assay type: cell-based, Wistar-Kyoto rats; conditions: for increase in matrix production per cell over that produced when no TGF-β was added: 0.04 pmol/ml (1 ng/ml) soluble TGF-β in the media, 2 days
Text: (§2) Chemicals were obtained from Sigma Chemical Co. (St. Louis, Mo.) unless otherwise stated. SMCs from the thoracic aorta of Wistar-Kyoto rats were isolated and characterized as previously described by Scott-Burden, et al., Hypertension 13:295-305 (1989). Human aortic smooth muscle cells (HASMCs) were obtained from Clonetics (San Diego, Calif.). Both SMCs and HASMCs were maintained on Minimal Essential Medium Eagle supplemented with 10% fetal bovine serum (FBS; BioWhittaker, Walkersville, Md.), 2 mM L-glutamine, 500 units penicillin and 100 mg/l streptomycin (MEM). Cells were incubated at 37° C. in a 5% CO2 environment.
Peptides used in this study were RGDS (SEQ ID NO:1), VAPG (SEQ ID NO:2), and KQAGDV (SEQ ID NO:3) (Research Genetics, Huntsville, Ala.). RGES (SEQ ID NO:4) was used as a non-adhesive control peptide. The peptides were acetylated and coupled to aminophase glass slides as previously described by Mann, et al., Biomaterials 20:2281-2286 (1999). Briefly, aminophase slides were prepared by incubating glass slides with 3-aminopropyltriethoxysilane in dry acetone at 37° C. overnight. Acetylated peptides were then coupled to the slides using 1-ethyl-3-(3-dimethylaminopropyl) carbodiimide (EDAC) chemistry. Slides were sterilized under UV light overnight prior to use.
Matrix protein production was evaluated as previously described by Mann (1999). Suspensions of SMCs were prepared in MEM supplemented with 5 μg/ml ascorbic acid at a concentration of 40,000 cells/ml. For samples receiving TGF-β, 0.04 pmol/ml (1 ng/ml) unmodified TGF-β or 0.04 pmol/ml acryloyl-PEG-TGF-β was added to the media. Cell suspensions to be used for measurement of ECM protein production were also supplemented with 1 μCi/ml ^3H-glycine (40 Ci/mmol). The glass slides were attached to FlexiPerm strips in QuadriPerm Cell Culture Vessels (Heraeus, Osterode am Harz, Germany) to create eight wells (1.11×0.79×0.79 cm) on each slide. Four of the wells on each slide were utilized to measure ECM production, while the remaining four wells were utilized for cell number determination and were cultured in the absence of ^3H-glycine. Cell number was determined after 2 days of culture by preparing single cell suspensions using trypsin and counting cells using a Coulter counter (Multisizer #0646, Coulter Electronics, Hialeah, Fla.).
To evaluate synthesis of ECM proteins, the cell growth media was supplemented with ^3H-glycine, as described above. Two days following ^3H-glycine addition, cells were removed non-enzymatically with 25 mM ammonium hydroxide, then rinsed with 70% ethanol and dried. This process leaves intact the ECM elaborated by cells during culture (Jones, et al., Proc. natl. Acad. Sci. USA 76:353-357 (1979)). Sequential enzyme digestion was used as previously described by Mann (1999) to determine the gross composition of the ECM proteins. Briefly, the ECM was digested first with trypsin, followed by elastase, and then collagenase. After the final enzymatic digestion, any material remaining on the substrate was dissolved by incubation with 1 N NaOH. Aliquots were taken from each step of the digest for scintillation counting.

SMCs [4] = assay: DNA and hydroxyproline determination in RGDS-containing PEG hydrogels seeded with SMCs; assay type: cell-based, Wistar-Kyoto rats; conditions: 0.04 pmol/ml, 7 days of culture
Text: as §2, with “environment. […]” for “environment.”
After 7 days of culture, hydrogels were removed from the culture media, weighed, and digested with 1 ml 0.1 N NaOH overnight at 37° C. […] DNA content of the digested, neutralized hydrogels was determined using a fluorescent DNA binding dye, Hoechst 33258 (Molecular Probes, Eugene, Oreg.). Fluorescence of the samples was determined using a fluorometer (VersaFluor, Bio-Rad Laboratories, Hercules, Calif.) with excitation filter at 360 nm and emission filter at 460 nm, and compared to fluorescence of calf thymus DNA standards.
Hydroxyproline concentration was determined by oxidation with chloramine T (ICN Biomedicals, Aurora, Ohio) and development with p-dimethylaminobenzaldehyde (ICN Biomedicals) (Woessner, et al. Arch. Biochem. Biophys. 93:440-447 (1961)). […]

Auricular chondrocytes [5] = assay: Dose response of auricular chondrocytes to TGF-β on tissue culture polystyrene; assay type: cell-based
Description: Auricular chondrocytes were grown on tissue culture polystyrene with varying amounts of TGF-β added to the media: 0, 1, 5, 10, 25, or 100 ng/ml. ECM protein production by the cells over a 2-day time period was determined by examining the amount of ^3H-glycine incorporated into the ECM elaborated by the cells.

[6] = tested on: Aortic smooth muscle cells; assay: Dose response of aortic smooth muscle cells to TGF-β on RGDS-coupled aminophase glass; assay type: cell-based
Description: Aortic smooth muscle cells were grown on aminophase glass that had 0.5 nmol/cm^2 RGDS (SEQ ID NO:1) covalently coupled to the glass. TGF-β was added to the media at 0, 1, or 5 ng/ml (0, 4×10^−5, 2×10^−4 nmol/ml). ECM protein production by the cells over a 2-day time period was determined by examining the amount of ^3H-glycine incorporated into the ECM elaborated by the cells.

[7] = 50 μg/ml ascorbic acid in the media, 2 days
[8] = 50 μg/ml ascorbic acid, over 2 days
[9] = RGDS-modified glass surfaces, 0.04 pmol/ml in the media

Compound	ECM protein production per cell [1, 7]	cell numbers (proliferation) [1, 8]	ECM protein production per cell (Auricular chondrocytes [2]; [7])	cell numbers (proliferation) (Auricular chondrocytes [2]; [8])	matrix production compared with absence of TGF-β (SMCs [3]; [9])	matrix production compared with unmodified TGF-β (SMCs [3]; [9])	hydroxyproline (collagen) production compared with no TGF-β (SMCs [4])	increase in matrix production per cell over that produced when no TGF-β was added (SMCs [3]; KQAGDV surfaces) [%]	matrix production compared with the non-adhesive control (RGES) (SMCs [3]; RGDS and KQAGDV modified surfaces, 1 ng/ml TGF-β in the media)	increase in matrix production per cell over that produced when no TGF-β was added (SMCs [3]; RGDS surfaces) [%]	increase in matrix production per cell over that produced when no TGF-β was added (SMCs [3]; VAPG surfaces) [%]	ECM protein production per cell (Auricular chondrocytes [5]; TGF-β in the media at concentrations above 1 ng/ml, 2 days)	cell numbers (proliferation) (Auricular chondrocytes [5]; TGF-β up to 100 ng/ml, over 2 days)	optimal concentration for ECM protein production per cell (Auricular chondrocytes [5]; auricular chondrocytes, 2 days) [ng/mL]	cell numbers (proliferation) ([6]; TGF-β 1 or 5 ng/ml, over 2 days)	ECM protein production per cell (% of control) ([6]; TGF-β in the media at both 1 and 5 ng/ml, 2 days)	optimal concentrations to induce ECM production ([6]; aortic smooth muscle cells)
O=C1O[C@H]([C@@H](O)CO)C(O)=C1O [ascorbic acid]	increased	did not increase	increased	did not increase													
acryloyl-PEG-TGF-β [polymer-conjugated TGF-β]					greater amounts of matrix	less matrix was produced											
transforming growth factor-beta [TGF-β]					greater amounts of matrix		More hydroxyproline	104	increased over that seen with the non-adhesive control	224	20	increased	did not increase	25	did not increase	increased	one and five
